Experimental findings from ChEMBL document CHEMBL5233262, “Anti-inflammatory activity of naturally occuring diarylheptanoids - A review” (Bioorg Med Chem, 2021) are described below.

Molecules are shown by their SMILES. pIC50: −log10 of the molar value.

Experiment [1] has as its system Hepatocyte. Kind of experiment: Hepatoprotective activity against CCL4-induced rat hepatocyte toxicity assessed as decrease in TNF-alpha level at 1 uM preincubated for 30 mins followed by CCL4 addition and measured after 180 mins by ELISA. Type of experiment: functional. Set-up: scale not given: the % may be the effect or the level left. To be noted: time 210 min. A general note: In an ELISA, binding on a coated surface is turned into a signal by an enzyme label.

Experiment [2] concerns RAW264.7. As to the kind of experiment: Antiinflammatory activity in mouse RAW264.7 cells assessed as inhibition of LPS-induced NO production preincubated for 1 hrs followed by LPS stimulation and measured after 24 hrs by Griess method. Type of experiment: functional, cell-based. Background: Nitrite, measured by Griess reagent, commonly stands in for NO production.
Experiment [3] has as its system Hepatocyte. Kind of experiment: Hepatoprotective activity against CCL4-induced rat hepatocyte toxicity assessed as decrease in IL-1beta level at 1 uM preincubated for 30 mins followed by CCL4 addition and measured after 180 mins by ELISA. Particulars: time 210 min. Type of experiment: functional. Further details: scale not given: the % may be the effect or the level left.

Experiment [4] deals with RAW264.7. As to the kind of experiment: Antiinflammatory activity in mouse RAW264.7 cells assessed as inhibition of LPS-induced TNFalpha level preincubated for 1 hrs followed by LPS stimulation and measured after 24 hrs by ELISA. Format: functional, cell-based.
The subject of experiment [5] is Hepatocyte. As to the kind of experiment: Hepatoprotective activity against CCL4-induced rat hepatocyte toxicity assessed as decrease in TBARS level by measuring MDA formation at 1 uM preincubated for 30 mins followed by CCL4 addition and measured after 180 mins by TBARS method. Format: functional. Further details: scale not given: the % may be the effect or the level left. Particulars: time 210 min.

For experiment [6], the system named is Hepatocyte. As to the kind of experiment: Hepatoprotective activity against CCL4-induced rat hepatocyte toxicity assessed as decrease in ALT level at 1 uM preincubated for 30 mins followed by CCL4 addition and measured after 180 mins by colorimetric method. Type of experiment: functional. Further details: scale not given: the % may be the effect or the level left. Particulars: time 210 min.

In experiment [7] the test system is RAW264.7. Kind of experiment: Antiinflammatory activity in mouse RAW264.7 cells assessed as inhibition of LPS-induced NO production for 24 hrs by colorimetric analysis. Type of experiment: functional, cell-based. Particulars: RAW264.7, 24 h.
Experiment [8] has as its system Rattus norvegicus. Kind of experiment: Antiinflammatory activity in rat model of ethyl phenylpropiolate-induced ear edema assessed as 30% reduction in ear thickness administered topically and measured after 1 hr. Format: functional.
Experiment [9] deals with Rattus norvegicus. As to the kind of experiment: Antiinflammatory activity in rat model of ethyl phenylpropiolate-induced ear edema assessed as 30% reduction in ear thickness administered topically and measured after 30 mins. Format: functional. To be noted: 0.5 h.
Experiment [10] relates to Rattus norvegicus. As to the kind of experiment: Antiinflammatory activity in rat model of carrageenan-induced hind paw edema assessed as reduction in paw thickness at 100 mg/kg,ip 30mins before carrageenin exposure and measured after 3 hrs. Format: functional. Further details: scale not given: the % may be the effect or the level left.
The subject of experiment [11] is U-937. As to the kind of experiment: Antiinflammatory activity in PMA-stimulated human U-937 cells assessed as inhibition of TNFalpha secretion at 1 ug/ml by ELISA. Format: functional.
For experiment [12], the system named is U-937. Kind of experiment: Antiinflammatory activity in PMA-stimulated human U-937 cells assessed as inhibition of IL-1beta secretion at 1 ug/ml by ELISA. Type of experiment: functional.
Experiment [13] has as its system U-937. As to the kind of experiment: Antiinflammatory activity in PMA-stimulated human U-937 cells assessed as inhibition of IL-1beta protein expression at 1 ug/ml by western blot analysis. Type of experiment: functional.
Experiment [14] concerns RAW264.7. Kind of experiment: Antiinflammatory activity in mouse RAW264.7 cells assessed as inhibition of LPS-induced IL-1beta production. Type of experiment: functional, cell-based.
In experiment [15] the test system is RAW264.7. Kind of experiment: Antiinflammatory activity in mouse RAW264.7 cells assessed as inhibition of LPS-induced TNF-alpha production. Format: functional, cell-based.
For experiment [16], the system named is RAW264.7. Kind of experiment: Antiinflammatory activity in mouse RAW264.7 cells assessed as inhibition of LPS-induced IL-6 production. Format: functional, cell-based.
Another experiment deals with Mus musculus. Kind of experiment: Antiinflammatory activity in ICR mouse model of TPA-induced ear edema assessed as inhibition of ear inflammation at 1 mg,TOP for 30 mins followed by TPA addition and measured after 6 hrs. Type of experiment: functional. To be noted: time 390 min, 6.5 h.
The test system of experiment [17] is RAW264.7. Kind of experiment: Antiinflammatory activity in mouse RAW264.7 cells assessed as inhibition of LPS-induced NF-kappaB expression preincubated for 1 hr followed by LPS stimulation and measured after 18 hrs by qPCR analysis. Type of experiment: functional, cell-based.
Experiment [18] deals with RAW264.7. As to the kind of experiment: Antiinflammatory activity in mouse RAW264.7 cells assessed as inhibition of LPS-induced TNFalpha production preincubated for 1 hr followed by LPS stimulation and measured after 18 hrs by immunoassay. Type of experiment: functional, cell-based.
In experiment [19] the test system is RAW264.7. Kind of experiment: Antiinflammatory activity in mouse RAW264.7 cells assessed as inhibition of LPS-induced NO production incubated for 24 hrs by Griess reagent based analysis. To be noted: RAW264.7, 24 h. Type of experiment: functional, cell-based.
Experiment [20] concerns RAW264.7. Kind of experiment: Antiinflammatory activity in mouse RAW264.7 cells assessed as inhibition of LPS-induced NO production by Griess method. Format: functional, cell-based.
The next experiment relates to J774.A1. As to the kind of experiment: Antiinflammatory activity in mouse J774.A1 cells assessed as inhibition of LPS-induced NO production incubated for 24 hrs by Griess reagent based analysis. Format: functional, cell-based. Particulars: J774.A1, 24 h.
Experiment [21] concerns RAW264.7. Kind of experiment: Antiinflammatory activity in mouse RAW264.7 cells assessed as inhibition of LPS-induced NO production at 30 uM preincubated for 0.5 hrs followed by LPS stimulation and measured after 24 hrs by Griess reagent based analysis. Type of experiment: functional. Particulars: time 24.5 hrs.
The subject of experiment [22] is Rattus norvegicus. Kind of experiment: Antiinflammatory activity in rat model of ethyl phenylpropiolate-induced ear edema assessed as reduction in ear thickness administered topically and measured after 30 mins. Type of experiment: functional. To be noted: 0.5 h.
Experiment [23] relates to Rattus norvegicus. Kind of experiment: Antiinflammatory activity in rat model of ethyl phenylpropiolate-induced ear edema assessed as reduction in ear thickness administered topically and measured after 1 hr. Type of experiment: functional.

As usually defined, the pIC50 is the IC50 on a negative log10 scale, so that one unit is a factor of ten. `COc1cc(/C=C/C(=O)CC(=O)/C=C/c2ccc(O)c(OC)c2)ccc1O` [CURCUMIN]: the Activity in the experiment on Hepatocyte [1] is reported as 37.1%; with Hepatocyte [3], 63.3%; in the experiment with Hepatocyte [5], 39.2%; in the experiment with Hepatocyte [6], 57.6%. Besides, the values for the pIC50 in the experiment with RAW264.7 [2] and in the experiment with RAW264.7 [4] were 4.91 and 4.95, respectively.
Turning to `Oc1ccc(CCC(O)/C=C/C=C/c2ccccc2)cc1` (centres undefined), the pIC50 in the experiment on RAW264.7 [7] was 6.18.
As to `OC(CC/C=C/c1ccccc1)CCc1ccccc1` (centres undefined), the figures for the ID30 in the experiment with Rattus norvegicus [8] and in the experiment on Rattus norvegicus [9] were 28 µg and 35 µg, respectively. In the experiment with Rattus norvegicus [10], the Activity was found to be 30%.
One may read the inhibition as the relative decrease from the control value, in per cent. As for `Oc1ccc(CCC(O)CC/C=C/c2ccccc2)cc1O` (centres undefined), the figures for the inhibition at 1 µg/mL in the experiment with U-937 [11], with U-937 [12] and in the experiment on U-937 [13] were 44%, 30% and 64%, respectively.
`COc1cc2cc(c1O)-c1cc(ccc1O)CC[C@H](O)CCCC2`: the negative-log IC50 (pIC50) in the experiment with RAW264.7 [14] is 4.75; in the experiment on RAW264.7 [15], 4.71; with RAW264.7 [16] it was 4.69.
As to `O=c1c(O)c(-c2ccc(O)c(O)c2)oc2cc(O)cc(O)c12` [QUERCETIN], the ID50 in the experiment on Mus musculus was found to be 1.6 mg. Also, the pIC50 in the experiment on RAW264.7 [14] was 4.77; in the experiment with RAW264.7 [15], 4.87; in the experiment on RAW264.7 [16] it was 4.77.
In the case of `COc1c2ccc(c1O)CCCCC(=O)CCc1ccc(O)c(c1)O2`, the pIC50 with RAW264.7 [17] was 5.04; in the experiment with RAW264.7 [18] it was 4.64; in the experiment on RAW264.7 [19], 4.73.
For `COc1cc(C(=O)[C@@H](O)[C@@H]2CCC[C@H](c3ccc(O)c(OC)c3)O2)ccc1O`, the pIC50 in the experiment on RAW264.7 [20] was 4.41.
For the molecule `COc1ccc2cc1Oc1ccc(c(O)c1OC)CCCC[C@H](O)CC2`, the values for the pIC50 in the experiment with RAW264.7 [17], with RAW264.7 [18] and with RAW264.7 [19] were 5.03, 4.65 and 4.74, respectively.
With `OC[C@H]1O[C@@H](O[C@H](CCCCc2ccc(O)cc2)CCc2ccc(O)cc2)[C@H](O)[C@@H](O)[C@@H]1O`, the pIC50 in the experiment on J774.A1 is 4.00. The ID50 with Mus musculus was 0.66 mg. Besides, the inhibition at 30 µM with RAW264.7 [21] turned out to be 24%.
Regarding `CCCCC1C(=O)N(c2ccccc2)N(c2ccc(O)cc2)C1=O` (centres undefined) [OXYPHENBUTAZONE ANHYDROUS], the ID30 in the experiment on Rattus norvegicus [8] was 0.3 µg; in the experiment with Rattus norvegicus [9], 0.2 µg. Moreover, the figures for the ID50 in the experiment on Rattus norvegicus [22] and with Rattus norvegicus [23] were 12 µg and 46 µg, respectively.
